Measured values reported in patent US12227495B2, “Herbicidal compounds” (SYNGENTA CROP PROTECTION AG, priority 2018, dated 2025).

How the values were obtained:
Type in all cases: in vivo
Conditions in all cases: evaluated after 13 days
[1] = tested on: Amaranthus retoflexus (AMARE); assay: Post-emergence herbicide test, glasshouse, percentage damage
Procedure, shortened: (§1)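 Pot-grown plants were sprayed at 500 g/ha unless otherwise stated, in acetone/water (50:50) with 0.5% Tween 20. Pre-emergence spraying was 1 day after sowing and post-emergence after 8 days, in a glasshouse at 24/16° C, 14 h light, 65% humidity. Percentage damage was scored 13 days later on a 1–5 scale (5=81-100%).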

[2] = tested on: Echinochloa crus-galli (ECHCG); assay: as above
Procedure, shortened: as §1

[3] = tested on: Ipomoea hederacea (IPOHE); assay: as above
Procedure, shortened: as §1

[4] = tested on: Lolium perenne (LOLPE); assay: as above
Procedure, shortened: as §1

[5] = tested on: Setaria faberi (SETFA); assay: as above
Procedure, shortened: as §1

[6] = tested on: Solanum nigrum (SOLNI); assay: as above
Procedure, shortened: as §1

[7] = tested on: Amaranthus retoflexus (AMARE); assay: Pre-emergence herbicide test, glasshouse, percentage damage
Procedure, shortened: as §1

[8] = tested on: Echinochloa crus-galli (ECHCG); assay: as above
Procedure, shortened: as §1

[9] = tested on: Ipomoea hederacea (IPOHE); assay: as above
Procedure, shortened: as §1

[10] = tested on: Lolium perenne (LOLPE); assay: as above
Procedure, shortened: as §1

[11] = tested on: Setaria faberi (SETFA); assay: as above
Procedure, shortened: as §1

[12] = tested on: Solanum nigrum (SOLNI); assay: as above
Procedure, shortened: as §1

SMILES	percentage damage caused to the plant, AMARE ([1]; 1000 g/ha)	percentage damage caused to the plant, ECHCG ([2]; 1000 g/ha)	percentage damage caused to the plant, IPOHE ([3]; 1000 g/ha)	percentage damage caused to the plant, LOLPE ([4]; 1000 g/ha)	percentage damage caused to the plant, SETFA ([5]; 1000 g/ha)	percentage damage caused to the plant, SOLNI ([6]; 1000 g/ha)	Pre-emergence Test AMARE percentage damage (five point scale) ([7]; rate 1000 g/ha)	Pre-emergence Test ECHCG percentage damage (five point scale) ([8]; rate 1000 g/ha)	Pre-emergence Test IPOHE percentage damage (five point scale) ([9]; rate 1000 g/ha)	Pre-emergence Test LOLPE percentage damage (five point scale) ([10]; rate 1000 g/ha)	Pre-emergence Test SETFA percentage damage (five point scale) ([11]; rate 1000 g/ha)	Pre-emergence Test SOLNI percentage damage (five point scale) ([12]; rate 1000 g/ha)	other results
Fc1cccc(Oc2ccc(Br)cn2)c1-c1cc(C(F)F)no1 [Compound A41]	5 (5=81-100%)	5 (5=81-100%)	5 (5=81-100%)	5 (5=81-100%)	5 (5=81-100%)	5 (5=81-100%)	5 (5=81-100%)	5 (5=81-100%)	3 (3=41-60%)	5 (5=81-100%)	5 (5=81-100%)	5 (5=81-100%)	
Fc1cc(Cl)cnc1Oc1cccc(Cl)c1-c1cc(C(F)F)no1 [Compound A42]													percentage damage caused to the plant, AMARE ([1]; 250 g/ha): 5 (5=81-100%); percentage damage caused to the plant, ECHCG ([2]; 250 g/ha): 4 (4=61-80%); percentage damage caused to the plant, IPOHE ([3]; 250 g/ha): 4 (4=61-80%); percentage damage caused to the plant, LOLPE ([4]; 250 g/ha): 5 (5=81-100%); percentage damage caused to the plant, SETFA ([5]; 250 g/ha): 5 (5=81-100%); percentage damage caused to the plant, SOLNI ([6]; 250 g/ha): 5 (5=81-100%); Pre-emergence Test AMARE percentage damage (five point scale) ([7]; rate 250 g/ha): 5 (5=81-100%); Pre-emergence Test ECHCG percentage damage (five point scale) ([8]; rate 250 g/ha): 5 (5=81-100%); Pre-emergence Test IPOHE percentage damage (five point scale) ([9]; rate 250 g/ha): 3 (3=41-60%); Pre-emergence Test LOLPE percentage damage (five point scale) ([10]; rate 250 g/ha): 5 (5=81-100%); Pre-emergence Test SETFA percentage damage (five point scale) ([11]; rate 250 g/ha): 5 (5=81-100%); Pre-emergence Test SOLNI percentage damage (five point scale) ([12]; rate 250 g/ha): 4 (4=61-80%)
Fc1cc(Cl)cnc1Oc1ccccc1-c1cc(C(F)F)no1 [Compound A43]	5 (5=81-100%)	4 (4=61-80%)	4 (4=61-80%)	5 (5=81-100%)	5 (5=81-100%)	5 (5=81-100%)	5 (5=81-100%)	5 (5=81-100%)	4 (4=61-80%)	5 (5=81-100%)	5 (5=81-100%)	5 (5=81-100%)	
Fc1cc(Cl)cnc1Oc1cccc(Br)c1-c1cc(C(F)F)no1 [Compound A44]	5 (5=81-100%)	5 (5=81-100%)	5 (5=81-100%)	5 (5=81-100%)	5 (5=81-100%)	5 (5=81-100%)	5 (5=81-100%)	5 (5=81-100%)	5 (5=81-100%)	5 (5=81-100%)	5 (5=81-100%)	5 (5=81-100%)	
O=[N+]([O-])c1cccc(Oc2ncc(Cl)cc2F)c1-n1cc(C(F)(F)F)cn1 [Compound A46]	5 (5=81-100%)	3 (3=41-60%)	2 (2=21-40%)	3 (3=41-60%)	4 (4=61-80%)	5 (5=81-100%)	4 (4=61-80%)	4 (4=61-80%)	1 (1=0-20%)	1 (1=0-20%)	5 (5=81-100%)	1 (1=0-20%)	
Fc1cccc(Oc2cccc(C(F)(F)F)n2)c1-c1cc(C(F)F)no1 [Compound A47]	3 (3=41-60%)	1 (1=0-20%)	1 (1=0-20%)	1 (1=0-20%)	1 (1=0-20%)	3 (3=41-60%)	1 (1=0-20%)	1 (1=0-20%)	1 (1=0-20%)	1 (1=0-20%)	1 (1=0-20%)	1 (1=0-20%)	
Fc1cccc(Oc2cccc(OC(F)F)n2)c1-c1cc(C(F)F)no1 [Compound A48]	5 (5=81-100%)	1 (1=0-20%)	2 (2=21-40%)	1 (1=0-20%)	2 (2=21-40%)	5 (5=81-100%)	1 (1=0-20%)	1 (1=0-20%)	1 (1=0-20%)	1 (1=0-20%)	1 (1=0-20%)	1 (1=0-20%)	
N#Cc1cccnc1Oc1cccc(F)c1-c1cc(C(F)F)no1 [Compound A49]	5 (5=81-100%)	3 (3=41-60%)	3 (3=41-60%)	1 (1=0-20%)	2 (2=21-40%)	5 (5=81-100%)	5 (5=81-100%)	3 (3=41-60%)	1 (1=0-20%)	1 (1=0-20%)	5 (5=81-100%)	5 (5=81-100%)	
Fc1ccc(Oc2cccc(F)c2-c2cc(C(F)F)no2)nc1F [Compound A50]	3 (3=41-60%)	2 (2=21-40%)	1 (1=0-20%)	1 (1=0-20%)	3 (3=41-60%)	5 (5=81-100%)	4 (4=61-80%)	1 (1=0-20%)	1 (1=0-20%)	1 (1=0-20%)	4 (4=61-80%)	4 (4=61-80%)	
Fc1cccc(Oc2ncc(C(F)(F)F)cc2Cl)c1-c1cc(C(F)F)no1 [Compound A51]	4 (4=61-80%)	1 (1=0-20%)	1 (1=0-20%)	1 (1=0-20%)	1 (1=0-20%)	5 (5=81-100%)	1 (1=0-20%)	1 (1=0-20%)	1 (1=0-20%)	1 (1=0-20%)	1 (1=0-20%)	1 (1=0-20%)	
Cc1cccc(Oc2ncc(Cl)cc2F)c1-n1cc(C(F)(F)F)cn1 [Compound A54]	3 (3=41-60%)	3 (3=41-60%)	1 (1=0-20%)	4 (4=61-80%)	5 (5=81-100%)	5 (5=81-100%)	5 (5=81-100%)	3 (3=41-60%)	1 (1=0-20%)	5 (5=81-100%)	5 (5=81-100%)	5 (5=81-100%)	
Fc1cccc(Oc2cccc(C(F)F)n2)c1-c1cc(C(F)F)no1 [Compound A55]	5 (5=81-100%)	1 (1=0-20%)	1 (1=0-20%)	1 (1=0-20%)	2 (2=21-40%)	5 (5=81-100%)	2 (2=21-40%)	1 (1=0-20%)	1 (1=0-20%)	1 (1=0-20%)	4 (4=61-80%)	2 (2=21-40%)	
